Patent US12558432B2, “Biocompatible polymeric drug carriers for delivering active agents” (CIS BIOPHARMA AG, priority 2019, dated 2026)

Test system: cell culture
Experiment: cell culture experiments (toxic effects)
Assay type: cell-based
Settings: at concentrations of up to 5 mM

Compound: C=CC(=O)NCCCC[C@H](N)C(=O)O [acryloyl-lysine, (S)-6-acrylamido-2-aminohexanoic acid]
- toxic effects in cell culture experiments: do not exhibit any toxic effects
